Measurements as given in US20210196731A1, “COMPOSITIONS AND METHODS FOR TREATING OCULAR INFLAMMATION AND OCULAR SCARRING” (priority 2018, published 2021).
Entries after “also recorded” stand apart in the source; their conditions may differ.

Columns and labels:
αSMA = assay: Cellular response to individual exogenous ASA-triggered lipid mediators (αSMA western blot); format: cell-based, human; conditions: 48 hrs
Method: Cells were lysed in lysis buffer (PhosphoSafe Extraction Reagent, Novagen) containing a protease inhibitor cocktail (P2714, Sigma-Aldrich). Crude protein lysate was quantified using a Pierce BCA protein assay kit (ThermoFisher, Mississauga, ON) and 10 ug from each sample was resolved using a Novex WedgeWell 4-20% tris-glycine gel (Invitrogen). Using an iBlot Gel Transfer Device (IB1001, Invitrogen), the separated protein was transferred to a nitrocellulose membrane (1B301001, iBlot Transfer Stack, Invitrogen) which was then blocked with 5% (w/v) bovine serum albumin (Sigma-Aldrich) in Tris buffered saline (TBST) for 1 hour at room temperature. The membranes were incubated overnight at 4° C. with primary antibody diluted in TBST containing 5% BSA (w/vol). Primary antibodies used were as follows: collagen 1 (ab138492, Abcam), αSMA (ab5694, Abcam), MMP9 (ab38898, Abcam), PPARγ (sc-7273, SantaCruz Biotechnology), SMAD2/3 (ab63672, Abcam), pSMAD2/3 (ab63399, Abcam) and GAPDH (sc-47724, Santa Cruz Biotechnology, Inc.). After incubation with primary antibodies, the blots were washed and hybridized with 1:3000 (v/v) dilutions of the appropriate goat anti-rabbit or anti-mouse IgG conjugated with horseradish peroxidase ([…], respectively, both from Bio-Rad Laboratories, Inc.). Visualization was accomplished by applying WesternBright Quantum chemiluminescent reagent (Advansta, Inc.), with GAPDH used as a protein loading control. Imaging and relative densiometric quantification was accomplished using a ChemiDoc MP System (Bio-Rad Laboratories, Inc.) connected to Image Lab (Version 6, Bio-Rad Laboratories, Inc.).
From the lipid mediator secretion assays, we see that exposure to ASA or APHS±a PLA2-a results in the generation of significant quantities of pro-resolving products 5-HETE, 11-HETE, 15-HETE and/or 17-OHDHA. The aim of this experiment was to assess the effects (both individually and in combination) of these lipid mediators at mitigating the induction of αSMA by aqueous humor growth factors. To this end, multiple primary HTCF cell lines were cultured in DMEM w/10% FBS in 6-well culture plates, incubated at 37 C and 5% CO2, until 80% confluent. The culture media was removed, wells washed with PBS, and then fresh DMEM w/0% FBS was added. After 24 hrs of serum starvation, one of 14 experimental treatments were applied for 48 hrs: 1) vehicle control (DMEM w/0% FBS), and 2) AHGFs (DMEM w/0% FBS and 2 ng/ml each of TGFB1, TGFB2, VEGF, CCN2), and 3-5) AHGFs/5-HETE (DMEM w/0% FBS, 2 ng/ml each of TGFB1, TGFB2, VEGF, CCN2, and 10, 100, or 1000 nM of 5-hydroxyeicosatetraenoic acid), and 6-8) AHGFs/11-HETE (DMEM w/0% FBS, 2 ng/ml each of TGFB1, TGFB2, VEGF, CCN2, and 10, 100, or 1000 nM of 11-hydroxyeicosatetraenoic acid), and 9-11) AHGFs/15-HETE (DMEM w/0% FBS, 2 ng/ml each of TGFB1, TGFB2, VEGF, CCN2, and 10, 100, or 1000 nM of 15-hydroxyeicosatetraenoic acid), and 12-14) AHGFs/17-OHDHA (DMEM w/0% FBS, 2 ng/ml each of TGFB1, TGFB2, VEGF, CCN2, and 10, 100, or 1000 nM of 17-hydroxy-docosahexaenoic acid). After 48 hrs exposure cellular protein lysate was collected and assessed by western blot with primary antibodies for αSMA and GAPDH, as described previously.

HTCFs [1] = assay: Collagen Contraction Assay II (dose dependence); format: cell-based, human; conditions: gentamicin alone, 100-1000 μg/ml, four days (FIG. 8A)
Method: (§1) The cell-collagen solution was pipetted gently to ensure homogenous distribution of HTCFs while avoiding the production of air bubbles, then 500 ul were pipetted into each well of a 24-well tray. Collagen constructs were allowed to polymerize at 37 C for 45 minutes before adding low serum culture media containing DMEM, 2% Fetal Bovine Serum (FBS), 1% penicillin/streptomycin (P/S).
Tension was allowed to build up within the tethered matrix at 37 C and 5% CO2 for 72 hours before a sterile spatula was used to detach each collagen construct from the edges of the culture well. Plates were then immediately scanned on a flat bed laser scanner once per 24 hours for a total of 4 days. The surface area of each collagen construct was measured using ImageJ (NIH) and standardized against the baseline surface area measurement to express changes in area as a percentage of original surface area.
The gentamicin concentrations assessed were delivered in a solution contained DMEM with 2% FBS, 1% penicillin/streptomycin and either 100, 250, 500, 750 or 100 μg/ml gentamicin (Sigma-Aldrich, CAT. NO: G1397). The ASA concentrations assessed were delivered in a solution of DMEM with 2% FBS, 1% penicillin/streptomycin and either 500, 1000 or 1500 μg/ml ASA (Sigma-Aldrich, CAT. NO: A5376). […]

HTCFs [2] = assay: Lipid Mediator Secretion Assay II (ASA or APHS with and without gentamicin, LC-MS/MS); format: cell-based, human; conditions: inflammatory cytokine induced HTCFs, gentamicin 250 or 500 μg/ml
Method: To this end, as before, multiple primary HTCF cell lines were cultured in DMEM w/10% FBS in 6-well culture plates, incubated at 37° C. and 5% CO2, until 90% confluent. The culture media was removed, wells washed with PBS, and then fresh DMEM w/0% FBS was added. After 24 hrs of serum starvation, fresh DMEM w/0% FBS was added, this time containing a physiologically relevant inflammation/wound healing induction mixture (1 ng/ml each of: IL-1b, TNFa, IFNγ, TGFb). After 12 hrs incubation, the induction media was removed, the wells were washed with PBS and fresh DMEM w/0% FBS was added containing one of ten experimental treatments for an incubation period of 48 hrs: 1) non-induced control (NIC: received DMEM w/0% FBS instead of the induction media), and 2) CytoM1+TGFB1 (DMEM w/0% FBS and 1 ng/ml each of: IL-1b, TNFa, IFNγ, TGFb), and 3) CytoM1/TGFB1/Gent250 (DMEM w/0% FBS, 1 ng/ml each of TGFB1, TGFB2, VEGF, CCN2 and 250 μg/ml gentamicin), and 4) CytoM1/TGFB1/Gent500 (DMEM w/0% FBS, 1 ng/ml each of TGFB1, TGFB2, VEGF, CCN2 and 500 μg/ml gentamicin), and 5) CytoM1/TGFB1/ASA500 (DMEM w/0% FBS, 1 ng/ml each of TGFB1, TGFB2, VEGF, CCN2, and 500 μg/ml ASA), and 6) CytoM1/TGFB1/ASA500/Gent250 (DMEM w/0% FBS, 1 ng/ml each of TGFB1, TGFB2, VEGF, CCN2, 500 μg/ml ASA and 250 μg/ml gentamicin), and 7) CytoM1/TGFB1/ASA1000 (DMEM w/0% FBS, 1 ng/ml each of TGFB1, TGFB2, VEGF, CCN2 and 1000 μg/ml ASA), and 8) CytoM1/TGFB1/ASA1000/Gent500 (DMEM w/0% FBS, 1 ng/ml each of TGFB1, TGFB2, VEGF, CCN2, 1000 μg/ml ASA, and 500 μg/ml gentamicin), and 9) CytoM1/TGFB1/APHS12 (DMEM w/0% FBS, 1 ng/ml each of TGFB1, TGFB2, VEGF, CCN2 and 12 μg/ml o-(acetoxyphenyl)hept-2-ynyl sulfide (APHS), and 10) CytoM1/TGFB1/APHS12/Gent250 (DMEM w/0% FBS, 1 ng/ml each of TGFB1, TGFB2, VEGF, CCN2, 12 μg/ml o-(acetoxyphenyl)hept-2-ynyl sulfide (APHS) and 250 μg/ml gentamicin). At 6, 12, 24 and 48 hrs after addition of the experimental treatments, 250 ul of supernatant was removed from each well, replaced with 250 ul of fresh DMEM w/0% FBS, and stored at −80° C. for subsequent LC-MS/MS analysis. After 48 hrs, the wells were washed with ice cold PBS three times and total cellular protein from the HTCF monolayer was collected for quantification and subsequent western blot analyses. The absolute quantity of protein within each culture well's HTCF monolayer was used as a means to standardize the relative secretion of lipid mediators by HTCFs into the culture well's supernatant.
This is a well-established method to determine the relative activity of cyclooxygenase, acetyl-COX2 and lipoxygenase biosynthetic pathways. In brief, the ratios of the integrated areas of the chromatographic peaks corresponding to each analyte and the integrated areas of the peaks corresponding to each analyte's internal standard (with known absolute quantity) are used to determine the relative quantity of each analyte in a given sample. After supernatant sample collection, 250 ul of methanol containing 100 μg of each deuterated internal standard was added. Samples were then vigorously vortexed and centrifuged at 10,000 g for 10 min before loading onto solid-phase extraction cartridges (Strata-X 33 um Polymeric Reversed Phase, 10 mg, Phenomenex 8B-S100-AAK), that were previously activated with 2 ml methanol and rinsed with 2 ml water. […] After washing with 5 ml water, extracts were eluted with 1 ml methanol. Solvent was then evaporated under vacuum in a SpeedVac centrifuge, and the extract was resuspended in 100 ul acetonitrile/water 60:40 (v/v). An aliquot of 20 ul was injected into the LC-MS/MS system for analysis. […] A Sciex Triple Quad 6500+ mass spectrometer with multiple reaction monitoring was used in negative ion mode. The chromatographic profile of the ion count for each m/z transition was monitored, and the area under the peaks (ion intensity vs elution time) was integrated using commercial software (MultiQuant, Sciex).

[3] = system: human Tenon's capsule fibroblasts (HTCFs); assay: Collagen Contraction Assay I (delayed release fibroblast populated collagen lattice); format: cell-based; conditions: gentamicin 1000 μg/ml and/or ASA 2000 μg/ml, 15 minutes twice daily, four day assay, vs vehicle control
Method: The delayed release fibroblast populated collagen lattice model was used to assess inhibition of gel contraction [58] by ASA and gentamicin. […] Cell free collagen lattices were prepared identically, however to isolate the effects of HTCFs alone on collagen, constructs without HTCFs were cast as a negative control. The cell-collagen solution was pipetted gently to ensure homogenous distribution of HTCFs while avoiding the production of air bubbles, then 500 ul were pipetted into each well of a 24-well tray. Collagen constructs were allowed to polymerize at 37 C for 45 minutes before adding low serum culture media containing DMEM, 2% Fetal Bovine Serum (FBS), 1% penicillin/streptomycin (P/S).
Tension was allowed to build up within the tethered matrix at 37 C and 5% CO2 for 72 hours before a sterile spatula was used to detach each collagen construct from the edges of the culture well. Plates were then immediately scanned on a flat bed laser scanner and then once per hour for the first 12 hours, then daily for a total of 4 days. The surface area of each collagen construct was measured using ImageJ (NIH) and standardized against the baseline surface area measurement to express changes in area as a percentage of original surface area.
Vehicle control treatment solution comprised of DMEM with 2% FBS and 1% penicillin/streptomycin. The gentamicin treatment solution contained DMEM with 2% FBS, 1% penicillin/streptomycin and 1000 μg/ml gentamicin (w/vol) (Sigma-Aldrich, CAT. NO: G1397). The ASA treatment solution contained DMEM with 2% FBS, 1% penicillin/streptomycin and 2000 μg/ml ASA (w/vol) (Sigma-Aldrich, CAT. NO: A5376). The gentamicin-ASA combination treatment solution (Gent+ASA) contained DMEM with 2% FBS, 1% penicillin/streptomycin, 1000 μg/ml gentamicin (w/vol.) and 2000 μg/ml ASA (w/vo).
Culture media was removed from collagen constructs twice daily and replaced with one of the four treatment solutions for a duration of 15 minutes. […]

HTCFs [4] = assay: Collagen Contraction Assay IV (AHGF induced, ASA and gentamicin vs mitomycin C); format: cell-based, human; conditions: ASA 1500 μg/ml and/or gentamicin 750 μg/ml; comparator mitomycin C 0.2 mg/ml for 4 minutes
Method: as §1
Tension was allowed to build up within the tethered matrix at 37 C and 5% CO2 for 72 hours before a sterile spatula was used to detach each collagen construct from the edges of the culture well. Plates were then immediately scanned on a flat bed laser scanner and then periodically for a total of 4 days. The surface area of each collagen construct was measured using ImageJ (NIH) and standardized against the baseline surface area measurement to express changes in area as a percentage of original surface area.
In this modification of the assay, AHGFs are added to all culture media the collagen constructs are exposed to—from casting of the collagen constructs to the conclusion of contraction. The experimental treatment solutions—all also containing AHGFs—were added 30 minutes prior to detaching the collagen constructs from the culture wells and remained until experimental conclusion. […] DMEM w/2% FBS was added for the remainder of the experiment).

Compound: CCCCC/C=C\C/C=C\C/C=C\C=C\[C@@H](O)CCCC(=O)O [5-HETE, 5-hydroxyeicosatetraenoic acid]
- AHGF-induced expression of αSMA (αSMA; lipid mediator at 100 nM): significantly reduced
- AHGF-induced expression of αSMA (αSMA; lipid mediator at 1000 nM): significantly reduced

Compound: CCCCC/C=C\C=C\C(O)C/C=C\C/C=C\CCCC(=O)O (stereo not shown) [11-HETE, 11-hydroxyeicosatetraenoic acid]
- AHGF-induced αSMA expression (αSMA; lipid mediator at 10, 100, or 1000 nM): did not significantly affect AHGF-induced αSMA expression

Compound: CCCCC[C@H](O)/C=C/C=C\C/C=C\C/C=C\CCCC(=O)O [15-HETE, 15-hydroxyeicosatetraenoic acid]
- AHGF-induced expression of αSMA (αSMA; lipid mediator at 100 nM): significantly reduced

Compound: CC/C=C\CC(O)/C=C/C=C\C/C=C\C/C=C\C/C=C\CCC(=O)O (stereo not shown) [17-OHDHA, 17-hydroxy-docosahexaenoic acid]
- AHGF-induced expression of αSMA (αSMA; lipid mediator at 100 nM): significantly reduced
- AHGF-induced expression of αSMA (αSMA; lipid mediator at 1000 nM): significantly reduced

Compound: gentamicin
- HTCF-mediated collagen contraction (HTCFs [1]): no significant treatment effects found; also recorded: no significant effect on HTCF-mediated collagen contraction
- secretion of PUFA precursors: AA, EPA and DHA (HTCFs [2]): significantly increase the secretion of PUFA precursors
- HTCF mediated collagen contraction [3]: did not affect collagen contraction until the second day of the four day assay
- AHGF induced, HTCF-mediated collagen contraction (HTCFs [4]): no statistically significant effect on collagen contraction
